Source: patent publication US20190192622A1, “Use of Antisecretory Factor (AF) in Glioblastoma Treatment” (LANTMÄNNEN AS-FAKTOR AB, priority 2012, published 2019)
Where a SMILES comes first, the peptide text is derived from it.

Experiments:
[1] = system: GL261 glioma tumor in the right brain hemisphere; assay: Intracranial / interstitial fluid pressure in mice with GL261 glioma after nasal peptide; format: in vivo, C57/BI/6 mice
Excerpt: Adult C57/BI/6 mice were purchased from B & K, Sollentuna, Sweden. The body weight was 23 g and the animals had water and pelleted feed ad libitum. Permission to the experiments was granted by the Regional Animal Experiments Ethical Committee, and national and EU rules were followed.
The GL261 mouse glioma cell line was of C57/BI/6 origin and cultured in the Rausing laboratory, BMC, Lund University, according to an established protocol (K. Enell Smith, S. Fritzell, W. Badn, S. Eberstål, S. Janelidze, E. Visse, A. Darabi and P. Siesjö (2008). Cure of established GL261 mouse gliomas after combined immunotherapy with GM-CSF and IFNγ is mediated by both CD8^+ and CD4^+ T-cells. Int. J. Cancer 124, 630-637).
C57/BI/6 mice had each 5.000 GL261 glioma cells in 5 μL tissue culture medium stereo tactically deposited in deep brain structure in the right brain hemisphere. An expanding tumor was formed and had 22 days later a diameter of 3-5 mm.
The six AA peptide AF-6 (SEQ ID NO:2) (manufactured by solid phase synthesis by K J Ross-Petersen ApS, Copenhagen, with >95% purity and TFA as counter ion) was selected to be investigated for its ability to reduce the increased intracranial pressure (ICP) inevitably evolving at this stage of tumor development.
A mouse with a GL261 tumor in the right brain hemisphere was anaesthetized with isofluran and positioned in a stereotactic holder. […]

[2] = system: RG2, clone N32 glioblastoma in the right brain hemisphere; assay: Intracranial pressure in rats with implanted RG2-N32 glioblastoma after nasal peptide; format: in vivo, Fisher 344 rats
Excerpt: (§1) Adult male Fisher 344 rats were purchased from Charles River, Germany. The body weight at the time for the experiments was 230-250 g. The animals had water and pelleted feed ad libitum. Permission to the experiments was granted by the Regional Animal Experiments Ethical Committee, and national and EU rules were followed.
Cultured cells of the established glioma cell line RG2, clone N32, were stereotactically deposited in the right striatum of the brain of adult Fisher 344 rats (A. T. Aas, A Brun, C. Blennow, S. Strömblad and L. G. Salford (1995). The RG2 glioma model. J. Neuro-Oncology 23, 175-183; R. F. Barth and B. Kauer ([…]). Rat brain tumor models in experimental neuro-oncology: the C6, 9L, T9, RG2, F98, BT4C, RT-2 and CNS-1 gliomas. (J Neuro-Oncology 94, 299-312). After 18-22 days, a tumor, fulfilling established criteria for glioblastoma, was demonstrable in the right hemisphere, invading adjacent brain parenchyma (FIGS. 1, 2). […] FIG. 4 is showing the implantation of pressure sensors (Samba 3200; Samba Sensors A B, V. Frölunda, Sweden), one in each hemisphere. The intracranial pressure was measured to be in the range of 25-50 mm Hg (FIG. 4), that means strikingly elevated as compared to normally 5.3±2.1 mm Hg (H.-A. Hansson, M. Al-Olama, E. Jennische, K. Gatzinsky and S. Lange (2012). The peptide AF-16 and the AF protein counteract intracranial hypertension. Acta Neurochir. Suppl. 114, 377-382). Eventually, the intracranial pressure exceed 50-60 mm Hg, resulting in herniation of the brain, dislocations and impaired blood circulation, and death (FIG. 5).
The intracranial pressure was raised both in the tumor affected right side and in the contralateral left side, and the pressure dropped to the same extent in either brain hemisphere. Concomitantly, any demonstrable neurological impairment resolved.
Cultured cells of the established glioma cell line RG2, clone N32, were stereotactically deposited in the right striatum of the brain of adult Fisher 344 rats as described in
After 18-22 days a tumor, fulfilling established criteria for glioblastoma, was demonstrable in the right hemisphere, invading adjacent brain parenchyma.
A single dose of the peptide AF-6 (1-2 mg/kg body weight, dissolved in water) was instilled in the nose of a Fisher rat with an experimental glioblastoma tumor of the RG2-N32 origin at day 21 after implantation. About 15 min later the intracranial pressure started to dropped from 25-27 mm Hg to 17.7 mm Hg (FIG. 7).

[3] = system: RG2, clone N32 glioblastoma tumor cell nuclei; assay: Uptake of tracer doxorubicin into glioblastoma cell nuclei of rats (fluorescence microscopy); format: in vivo, Fisher 344 rats
Excerpt: The aim of this experiment was to investigate if treatment with AF-16 increased the penetration of a marker through the tumor cells membrane and subsequent entrance and distribution in their nuclei. Doxorubicin was selected as a tracer for the reason that it is an established cytotoxic drug with a molecular mass of 543.52 g/mol, i.e. being considered as a fairly low molecular mass substance. Further, doxorubicin has a red color and when exposed to light emits a red fluorescence. Doxorubicin is strongly intercalating with the DNA in cell nuclei. This means that if a red fluorescence is observed in a cell nucleus the marker has been reached its target, the tumor cells. It is known that glioblastoma cells, in humans as in animals, prevent the entrance of chemotherapeutic substances into the tumor cells, and consequently no beneficial effects are attained. The most important barrier to the drug is prevailing at the surface of the tumor cells.
as §1
Cultured cells of the established glioma cell line RG2, clone N32, were stereotactically deposited in the right striatum of the brain of adult Fisher 344 rats as described in Example 1. After 20 days a tumor, fulfilling established criteria for being a glioblastoma, was present in the right brain hemisphere of either rat.
AF-16, 1 mg per kg body weight, dissolved in water and administrated as a single dose in a volume of 10 μL, was instilled in the nostrils of anaesthetized Fisher rats. […] Cryostat microtome sections were prepared of the brains, and examined with the aid of fluorescence microscope.
That means that very few doxorubicin molecules entered the tumor cells.

[4] = system: experimentally induced glioblastoma tumor cell nuclei; assay: Uptake and binding of doxorubicin to tumor cell nuclei in mice with experimentally induced glioblastoma; format: in vivo; settings: additional experiments
[5] = AF-16 1 mg per kg body weight nasally, 1 h before i.v. doxorubicin 10 mg per kg, sacrificed 30 min later
[6] = AF-16 4 mg/kg bw nasally 1 h prior to i.v. doxorubicin 10 mg/kg bw, brains removed 30 min later
[7] = single nasal instillation 1-4 mg/kg body weight

Compound	side effects ([1]; nasal 5 mg per kg body weight)	side effects ([2]; single nasal dose 1-2 mg/kg body weight)	effect on raised intracranial pressure (statement in words) ([1]; mice with experimentally induced glioblastoma)	doxorubicin staining of the tumor cell nuclei [3, 5]	proportion of tumor cells labeled by doxorubicin [3, 5]	frequency of doxorubicin-stained tumor cell nuclei vs vehicle pretreatment [3, 6]	intensity of doxorubicin staining of tumor cell nuclei vs vehicle pretreatment [3, 6]	effect on uptake of doxorubicin by tumor cell nuclei (summary statement) ([3]; animals with experimentally induced glioblastoma)	effect on raised intracranial pressure (summary statement) ([2]; animals with experimentally induced glioblastoma, tumor and contralateral hemisphere)	start of intracranial pressure decrease after nasal administration ([2]; nasal AF-16 4 mg/kg bw)	intracranial pressure attained ([2]; nasal AF-16 4 mg/kg bw, in half an hour, either brain hemisphere)	duration of the beneficial effects on intracranial pressure [2, 7]	time to reduction of the high intracranial pressure [2, 7]	intracranial pressure after reduction (acceptable level) ([2]; single nasal instillation 1-4 mg/kg body weight in 10 μL water, baseline 25-50 mm Hg, both hemispheres)	demonstrable neurological impairment ([2]; single nasal instillation 1-4 mg/kg body weight, concomitant with pressure drop)	effect on uptake and binding of doxorubicin to tumor cell nuclei [4]
C[C@@H](O)[C@H](NC(=O)[C@H](CCCCN)NC(=O)[C@H](CO)NC(=O)[C@H](Cc1c[nH]cn1)NC(=O)[C@@H](N)CS)C(=O)N[C@@H](CCCNC(=N)N)C(=O)O [AF-6, CHSKTR] (H-CHSKTR-OH)	No side effects were noticed	No side effects could be disclosed														
VCHSKTRSNPENNVGL (Variant (2)..(2) C may be replaced by S; Variant (3)..(3) H may be replaced by R or K; Variant (4)..(4) S may be replaced by L; Variant (6)..(6) T may be replaced by A) [AF-16, a peptide composed of the amino acids …, fragment of antisecretory factor protein]			reduced the high intracranial pressure	strong red staining	a large proportion of these cells were labeled	increased	increased	efficiently improved the uptake	lower the raised intracranial pressure	about 12 minutes	~20 mm Hg	4 to 6 h	15 to 30 min	≤ 20 mm Hg	resolved	facilitated the uptake and binding of doxorubicin to tumor cell nuclei
